Laboratory results: BindingDB's records for patent US20250115607 (Hoffmann-La Roche, 2025)

Assays:
Assay in all cases: Phosphorylation Assay SIK1-3
[1] = biological target: Serine/threonine-protein kinase SIK3 (Homo sapiens, UniProt Q9Y2K2)
Protocol: (§1) In the presence of SIK2 (resp. SIK1 or SIK3) and ATP the CHK-peptide ([…] with C-terminal arginine amide modification) were phosphorylated at one of the four feasible serine's. Only one phosphorylation is observed under the assay conditions. 60 nl of each compound dilution series (12 point; dilution factor 3, generally 30 μM to 170 pM) in DMSO were transferred by acoustic dispensing to the assay plate and 30 minutes pre-incubated (ambient temperature) after the addition of 5 μl SIK1 (5 nM) resp. 5 μl SIK2 (0.5 nM) or 7 μl SIK3 (1.5 nM) in assay-buffer (12.5 mM HEPES (pH 7.0), 10 mM magnesium acetate, 0.005% BSA). 10 μM CHK-peptide solution and 5 μl of 100 μM ATP for SIK1 & SIK2 resp. 3 μl for SIK3 in assay-buffer were added and incubated ambient for 45 minutes. 40 μl of 0.125% formic acid in water were added to quench the reaction. RapidFire (RF) Mass Spectrometry was utilized for data generation as described below. The multiple charged species (3-5 charges) for the phosphorylated and non-phosphorylated form measured by MRM (Multiple Reaction Monitoring; API5000 or 6500+) or EIC (Extracted Ion Current; QToF) were summed up and the ratio calculated (sum phosphorylated species/sum all species) for data evaluation. Normalization was performed by Genedata software based on the non-inhibition control DMSO and the commercially available STK inhibitor @1 μM YKL-05-099 (CAS number 1936529-65-5).

[2] = biological target: Serine/threonine-protein kinase SIK2 (Homo sapiens, UniProt Q9H0K1)
Protocol: as §1

[3] = biological target: Serine/threonine-protein kinase SIK1 (Homo sapiens, UniProt P57059)
Protocol: as §1

Sequence of Serine/threonine-protein kinase SIK2 (Q9H0K1 whole entry): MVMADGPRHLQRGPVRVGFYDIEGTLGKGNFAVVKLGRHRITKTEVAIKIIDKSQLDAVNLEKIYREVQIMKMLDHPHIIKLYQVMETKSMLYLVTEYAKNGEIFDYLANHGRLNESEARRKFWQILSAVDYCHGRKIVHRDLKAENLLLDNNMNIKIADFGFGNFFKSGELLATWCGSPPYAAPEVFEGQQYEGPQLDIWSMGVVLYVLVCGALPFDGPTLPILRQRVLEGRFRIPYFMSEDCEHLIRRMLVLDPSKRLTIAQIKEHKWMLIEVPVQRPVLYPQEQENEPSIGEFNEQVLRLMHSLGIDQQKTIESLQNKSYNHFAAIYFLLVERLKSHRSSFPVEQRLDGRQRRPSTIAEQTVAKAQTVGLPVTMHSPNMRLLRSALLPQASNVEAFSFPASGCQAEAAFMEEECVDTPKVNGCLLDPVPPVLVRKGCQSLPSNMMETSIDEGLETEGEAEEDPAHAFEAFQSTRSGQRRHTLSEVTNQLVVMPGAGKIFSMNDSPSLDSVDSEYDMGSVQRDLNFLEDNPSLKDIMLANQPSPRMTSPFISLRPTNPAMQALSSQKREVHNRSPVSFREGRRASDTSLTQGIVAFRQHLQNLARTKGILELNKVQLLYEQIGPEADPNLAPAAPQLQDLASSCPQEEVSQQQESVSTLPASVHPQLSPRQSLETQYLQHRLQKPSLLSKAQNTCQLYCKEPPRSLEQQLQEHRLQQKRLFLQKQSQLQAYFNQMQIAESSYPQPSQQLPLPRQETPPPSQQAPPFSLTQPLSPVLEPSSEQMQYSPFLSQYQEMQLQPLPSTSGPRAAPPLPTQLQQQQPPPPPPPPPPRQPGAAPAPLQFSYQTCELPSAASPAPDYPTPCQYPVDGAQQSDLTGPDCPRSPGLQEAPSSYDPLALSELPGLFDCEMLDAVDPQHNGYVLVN
Sequence of Serine/threonine-protein kinase SIK1 (P57059 whole entry): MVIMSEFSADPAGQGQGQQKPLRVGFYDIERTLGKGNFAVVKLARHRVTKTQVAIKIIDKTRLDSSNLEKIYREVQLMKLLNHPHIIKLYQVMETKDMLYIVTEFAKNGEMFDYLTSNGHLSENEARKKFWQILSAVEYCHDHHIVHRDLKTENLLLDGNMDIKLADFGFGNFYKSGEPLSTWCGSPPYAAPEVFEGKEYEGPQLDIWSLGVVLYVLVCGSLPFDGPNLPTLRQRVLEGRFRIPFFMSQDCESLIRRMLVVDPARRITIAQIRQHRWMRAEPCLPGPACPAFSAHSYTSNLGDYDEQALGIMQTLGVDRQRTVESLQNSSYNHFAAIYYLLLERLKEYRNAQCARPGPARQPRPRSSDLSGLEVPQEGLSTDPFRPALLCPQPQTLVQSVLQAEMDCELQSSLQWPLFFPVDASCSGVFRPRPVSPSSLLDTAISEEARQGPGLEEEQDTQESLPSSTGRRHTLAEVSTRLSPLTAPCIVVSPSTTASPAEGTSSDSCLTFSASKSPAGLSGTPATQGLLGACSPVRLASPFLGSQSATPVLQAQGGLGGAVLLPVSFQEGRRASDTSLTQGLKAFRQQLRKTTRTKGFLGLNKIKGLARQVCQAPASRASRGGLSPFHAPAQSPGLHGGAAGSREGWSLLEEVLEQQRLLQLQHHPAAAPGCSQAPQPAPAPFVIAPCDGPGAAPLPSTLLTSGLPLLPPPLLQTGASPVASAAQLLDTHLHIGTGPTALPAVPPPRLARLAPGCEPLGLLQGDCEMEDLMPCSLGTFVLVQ
Sequence of Serine/threonine-protein kinase SIK3 (Q9Y2K2 whole entry): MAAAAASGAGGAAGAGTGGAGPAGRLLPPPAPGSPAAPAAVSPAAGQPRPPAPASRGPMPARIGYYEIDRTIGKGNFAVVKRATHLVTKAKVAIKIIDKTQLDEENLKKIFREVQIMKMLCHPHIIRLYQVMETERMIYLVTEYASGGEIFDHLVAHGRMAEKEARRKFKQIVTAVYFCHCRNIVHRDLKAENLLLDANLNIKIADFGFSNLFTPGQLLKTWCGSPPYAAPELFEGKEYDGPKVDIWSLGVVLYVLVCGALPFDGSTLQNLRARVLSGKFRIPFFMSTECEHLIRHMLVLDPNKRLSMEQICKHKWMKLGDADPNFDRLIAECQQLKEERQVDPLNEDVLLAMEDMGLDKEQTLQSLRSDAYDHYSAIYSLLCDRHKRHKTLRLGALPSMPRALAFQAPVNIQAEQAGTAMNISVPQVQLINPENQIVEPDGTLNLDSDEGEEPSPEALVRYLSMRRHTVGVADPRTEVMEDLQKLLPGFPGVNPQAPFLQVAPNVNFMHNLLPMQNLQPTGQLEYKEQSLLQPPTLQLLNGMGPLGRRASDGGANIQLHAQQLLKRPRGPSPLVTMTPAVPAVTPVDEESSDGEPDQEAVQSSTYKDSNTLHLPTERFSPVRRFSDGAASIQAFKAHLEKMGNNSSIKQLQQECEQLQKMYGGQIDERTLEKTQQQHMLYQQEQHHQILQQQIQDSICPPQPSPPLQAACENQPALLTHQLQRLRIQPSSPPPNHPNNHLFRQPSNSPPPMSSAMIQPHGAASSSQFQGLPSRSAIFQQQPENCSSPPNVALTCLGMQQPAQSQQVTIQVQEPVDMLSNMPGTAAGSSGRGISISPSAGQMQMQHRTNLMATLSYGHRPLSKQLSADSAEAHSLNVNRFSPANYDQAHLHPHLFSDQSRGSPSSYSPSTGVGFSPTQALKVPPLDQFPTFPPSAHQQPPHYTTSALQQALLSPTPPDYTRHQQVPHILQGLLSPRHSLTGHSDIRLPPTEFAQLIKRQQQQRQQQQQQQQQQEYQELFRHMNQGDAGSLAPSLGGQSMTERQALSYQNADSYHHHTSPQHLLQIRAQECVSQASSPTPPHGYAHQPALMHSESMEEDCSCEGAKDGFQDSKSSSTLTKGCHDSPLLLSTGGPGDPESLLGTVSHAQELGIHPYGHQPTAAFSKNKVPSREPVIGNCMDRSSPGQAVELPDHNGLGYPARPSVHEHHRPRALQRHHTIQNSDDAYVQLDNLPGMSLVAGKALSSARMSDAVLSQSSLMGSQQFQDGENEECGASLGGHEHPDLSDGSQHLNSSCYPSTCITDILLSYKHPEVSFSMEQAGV

SMILES: CC(=O)c1ccc(-n2cnc3cc(N(C)c4ccc(C)nn4)ncc32)nc1-n1nc(C#N)cc1C [US20250115607, Example 5]
- IC50 [1]: 2.06 µM
- IC50 [2]: 0.687 µM
- IC50 [3]: 19 µM
